Inhibition and IC50 data for 29 compounds are collected here from patent US8822449B2, “Substituted aminoindanes and analogs thereof, and the pharmaceutical use thereof” (Sanofi, priority 2008, dated 2014).

The target in this experiment is T1, sodium-proton exchanger of subtype 3 (NHE3) (Homo sapiens, UniProt P48764).
T1 construct: expressed in transfected cells
T1 sequence (P48764 26-834): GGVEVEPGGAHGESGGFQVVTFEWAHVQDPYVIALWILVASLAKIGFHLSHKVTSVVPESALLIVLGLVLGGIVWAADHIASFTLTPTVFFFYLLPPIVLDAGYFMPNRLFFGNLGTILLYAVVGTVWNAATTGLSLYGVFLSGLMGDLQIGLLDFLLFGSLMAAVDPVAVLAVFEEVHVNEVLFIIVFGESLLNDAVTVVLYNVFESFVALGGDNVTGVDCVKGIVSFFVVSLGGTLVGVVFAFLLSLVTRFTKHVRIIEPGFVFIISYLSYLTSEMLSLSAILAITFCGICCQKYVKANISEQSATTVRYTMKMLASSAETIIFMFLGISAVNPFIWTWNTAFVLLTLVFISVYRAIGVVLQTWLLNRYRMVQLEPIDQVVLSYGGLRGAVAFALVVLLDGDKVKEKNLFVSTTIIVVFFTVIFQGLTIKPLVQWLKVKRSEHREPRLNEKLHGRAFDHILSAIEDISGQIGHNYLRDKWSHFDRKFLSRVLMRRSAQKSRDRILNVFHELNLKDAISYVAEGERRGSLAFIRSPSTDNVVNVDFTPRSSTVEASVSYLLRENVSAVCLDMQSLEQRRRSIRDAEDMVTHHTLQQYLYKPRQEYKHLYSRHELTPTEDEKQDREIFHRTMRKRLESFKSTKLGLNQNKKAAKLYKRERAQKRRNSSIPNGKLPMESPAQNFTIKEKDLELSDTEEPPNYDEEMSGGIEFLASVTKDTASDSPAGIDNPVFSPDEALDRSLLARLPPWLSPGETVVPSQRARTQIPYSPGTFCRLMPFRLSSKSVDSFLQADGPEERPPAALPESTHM
Briefly: Recovery of intracellular pH (pHi) after acidification in LAP1 cells stably expressing NHE3 (BCECF fluorescence, FLIPR). Format: cell-based. Conditions: LAP1 cells stably expressing NHE3; pH recovery after acidification; range 1 is % inhibition at 10 μM; read-out: Activity range (inhibitory effect on NHE3).
Protocol: In this assay, the recovery of the intracellular pH (pHi) of LAP1 cells which stably express the sodium-proton exchanger of subtype 3 (NHE3) after acidification was determined. The recovery occurs even under bicarbonate-free conditions with functional NHE3. To this end, the pHi was determined using the pH-sensitive fluorescent dye BCECF (Molecular Probes, Eugene, Oreg., USA, employing the precursors BCECF-AM). The cells were initially incubated with BCECF (5 μM BCECF-AM) in NH4Cl buffer (NH4Cl buffer: 115 mM cholineCl, 20 mM NH4Cl, 5 mM KCl, 1 mM CaCl2, 1 mM MgCl2, 20 mM Hepes, 5 mM glucose, a pH of 7.4 was adjusted with 1 M KOH). The intracellular acidification was induced by washing the cells incubated in NH4Cl buffer with NH4Cl-free buffer (133.8 mM choline chloride, 4.7 mM KCl, 1.25 mM CaCl2, 1.25 mM MgCl2, 0.97 mM K2HPO4, 0.23 mM KH2PO4, 5 mM Hepes, 5 mM glucose, a pH of 7.4 was adjusted with 1 M KOH). After the washing step, 90 μl of the NH4Cl-free buffer were left on the cells. The pH recovery was started by adding 90 μl of Na^+-containing buffer (133.8 mM NaCl, 4.7 mM KCl, 1.25 mM CaCl2, 1.25 mM MgCl2, 0.97 mM Na2HPO4, 0.23 mM NaH2PO4, 10 mM Hepes, 5 mM glucose, a pH of 7.4 was adjusted with 1 M NaOH) in a measuring instrument (FLIPR, “Fluorometric Imaging Plate Reader”, Molecular Devices, Sunnyvale, Calif., USA). The BCECF fluorescence was determined with an excitation wavelength of 498 nm and the FLIPR emission filter 1 (bandpass from 510 to 570 nm). The subsequent changes in fluorescence as a measure of pH recovery were recorded for two minutes. To calculate the NHE3-inhibitory power of the tested substances, the cells were initially investigated in buffers with which complete or absolutely no pH recovery took place. For complete pH recovery (100%), the cells were incubated in Na^+-containing buffer (see above), and to determine the 0% value were incubated in Na^+-free buffer (see above). The substances to be tested were made up in Na^+-containing buffer. The recovery of the intracellular pH at each tested concentration of a substance was expressed as percent of the maximum recovery.
The IC50 of the respective substance for NHE3 was calculated from the percentages of pH recovery using the program XLFit (idbs, Surrey, UK).
Turning to `NS(=O)(=O)c1ccc(O[C@H]2c3ccccc3C[C@@H]2CN2CCCCC2)c(Cl)c1` (racemic) [Example 440, 3-chloro-4-(2-piperidin-1-ylmethylindan-1-yloxy)benzenesulfonamide], the inhibition at 10 µM is 20 to 50%.

Regarding `Cc1ccc(O[C@@H]2c3ccccc3C[C@H]2N2CCC(CN)CC2)c(Br)c1` (racemic) [Example 603, C-{1-[rac-trans-(1,2)-1-(2-bromo-4-methylphenoxy)indan-2-yl]piperidin-4-yl}methylamine], the IC50 is 1000 to 10000 nM.

Take `CN1CCN([C@H]2Cc3c(Cl)cc(Cl)cc3[C@@H]2Oc2ccc(C#N)cc2F)CC1` [Example 485, 4-[(1S,2S)-4,6-dichloro-2-(4-methylpiperazin-1-yl)indan-1-yloxy]-3-fluorobenzonitrile]: the inhibition at 10 µM lay within 20 to 50%.

As to `CS(=O)(=O)c1ccc(O[C@@H]2c3ccccc3C[C@@H]2NC2CCC2)cc1` (racemic) [Example 706, Cyclobutyl-[rac-cis-(1,2)-1-(4-methanesulfonyl-phenoxy)-indan-2-yl]-amine], the inhibition at 10 µM was in the range of 20 to 50%.

As for `O=C1OCCN1c1cccc(O[C@H]2c3ccccc3C[C@@H]2N2CCCC2)c1` (racemic) [Example 409, 3-[3-(rac-trans-(1,2)-2-pyrrolidin-1-ylindan-1-yloxy)phenyl]oxazolidin-2-one], the IC50 is less than 1000 nM.

As for `N[C@@H]1CCCN([C@@H]2Cc3ccccc3[C@H]2Oc2ccc(S(N)(=O)=O)c(Cl)c2Cl)C1` (racemic) [Example 518, 4-[rac-trans-(1,2)-2-((R)-3-aminopiperidin-1-yl)indan-1-yloxy]-2,3-dichlorobenzenesulfonamide], the IC50 was less than 1000 nM.

Regarding `Cc1nnc(C)n1-c1ccc(O[C@H]2c3c(Cl)sc(Cl)c3CC[C@@H]2N2CCCC2)c(F)c1` (racemic) [Example 495, 4-[4-((4S,5S)-1,3-dichloro-5-pyrrolidin-1-yl-4,5,6,7-tetrahydrobenzo[c]thiophen-4-yloxy)-3-fluorophenyl]-3,5-dimethyl-4H-[1,2,4]triazole], the IC50 lay in the range of 1000 to 10000 nM.

As for `NC1CCN([C@@H]2Cc3ccccc3[C@H]2Oc2ccc3cc[nH]c3c2)C1` (mixture of isomers) [Example 262, 1-[rac-trans-(1,2)-1-(1H-indol-6-yloxy)indan-2-yl]pyrrolidin-3-ylamine], the IC50 was 1000 to 10000 nM.

In the case of `N#Cc1ccc(O[C@@H]2c3ccccc3C[C@H]2N2CCC[C@@H](N)C2)cc1Cl` (racemic) [Example 521, 4-[rac-trans-(1,2)-2-((R)-3-aminopiperidin-1-yl)indan-1-yloxy]-2-chlorobenzonitrile], the IC50 fell in the range of 1000 to 10000 nM.

Regarding `NC(=O)Nc1cccc(O[C@@H]2c3ccccc3C[C@H]2N2CCC[C@@H](N)C2)c1` (racemic) [Example 231, {3-[rac-trans-(1,2)-2-((R)-3-aminopiperidin-1-yl)indan-1-yloxy]phenyl}urea], the IC50 is less than 1000 nM.

Take `CC(=O)Nc1cccc(O[C@H]2c3cc(F)ccc3C[C@@H]2N2CCCC2)c1` (racemic) [Example 661, N-[3-(rac-trans-(1,2)-6-fluoro-2-pyrrolidin-1-ylindan-1-yloxy)phenyl]acetamide]: the IC50 was less than 1000 nM.

`CS(=O)(=O)c1ccc(O[C@@H]2c3cc(F)cc(Cl)c3C[C@H]2N2CCC[C@@H](N)C2)cc1` (racemic) [Example 91, (R)-1-[rac-trans-(1,2)-4-chloro-6-fluoro-1-(4-methanesulfonylphenoxy)indan-2-yl]piperidin-3-ylamine]: the IC50 is less than 1000 nM.

Regarding `CC(=O)Nc1cccc(O[C@@H]2c3ccccc3C[C@H]2N2CCC(CN)C2)c1` (mixture of isomers) [Example 686, N-{3-[rac-trans-(1,2)-2-(3-aminomethylpyrrolidin-1-yl)indan-1-yloxy]phenyl}acetamide], the IC50 is 1000 to 10000 nM.

Consider `COc1cccc(F)c1O[C@@H]1c2ccccc2C[C@H]1N1CCC(CN)C1` (mixture of isomers) [Example 605, C-{1-[rac-trans-(1,2)-1-(2-fluoro-6-methoxyphenoxy)indan-2-yl]pyrrolidin-3-yl}methylamine], for which the IC50 is 1000 to 10000 nM.

For `CS(=O)(=O)c1ccc(O[C@H]2c3cc(Cl)cc(Cl)c3C[C@@H]2N2CCCC(NCCO)C2)cc1` (stereo partly drawn) [Example 379, 2-{(R)-1-[trans-(1S,2S)-4,6-dichloro-1-(4-methanesulfonylphenoxy)indan-2-yl]piperidin-3-ylamino}-ethanol], the IC50 is less than 1000 nM.

Regarding `CN(C)CCCN(C)[C@H]1Cc2ccccc2[C@@H]1Oc1ccc(S(C)(=O)=O)cc1` (racemic) [Example 669, N-[rac-trans-(1,2)-1-(4-methanesulfonylphenoxy)indan-2-yl]-N,N′,N′-trimethylpropane-1,3-diamine], the IC50 was 1000 to 10000 nM.

Take `Brc1ccc(O[C@@H]2c3ccccc3C[C@H]2N2C[C@H]3CNC[C@H]3C2)c(-c2cc[nH]n2)c1` (racemic) [Example 20, 2-{rac-trans-(1,2)-1-[4-bromo-2-(1H-pyrazol-3-yl)phenoxy]indan-2-yl}octahydropyrrolo[3,4-c]pyrrole]: the IC50 lay in the range of 1000 to 10000 nM.

In the case of `N[C@H]1CCCN([C@H]2CCc3ccccc3[C@@H]2Oc2ccc(F)cc2)C1` (racemic) [Example 179, (S)-1-[rac-trans-(1,2)-1-(4-fluorophenoxy)-1,2,3,4-tetrahydronaphthalen-2-yl]piperidin-3-ylamine], the inhibition at 10 µM lay in the range of 20 to 50%.

Turning to `Fc1ccc(O[C@@H]2c3ccccc3C[C@H]2N2C[C@H]3CNC[C@H]3C2)c(F)c1` (racemic) [Example 9, 2-[rac-trans-(1,2)-1-(2,4-difluorophenoxy)indan-2-yl]octahydropyrrolo[3,4-c]pyrrole], the IC50 lay within 1000 to 10000 nM.

Consider `N#Cc1ccc(O[C@H]2c3ccccc3CC[C@@H]2N2CCC[C@H](N)C2)c([N+](=O)[O-])c1` (racemic) [Example 534, 4-[rac-trans-(1,2)-2-((S)-3-aminopiperidin-1-yl)-1,2,3,4-tetrahydronaphthalen-1-yloxy]-3-nitrobenzonitrile], for which the inhibition at 10 µM is 20 to 50%.

For `Cc1nnc(C)n1-c1ccc(O[C@@H]2c3ccccc3C[C@@]2(C)N2CCCC2)c(F)c1` (racemic) [Example 494, 4-[3-fluoro-4-(-2-methyl-2-pyrrolidin-1-ylindan-1-yloxy)phenyl]-3,5-dimethyl-4H-[1,2,4]triazole], the IC50 was 1000 to 10000 nM.

For the compound `N[C@@H]1CCCN([C@@H]2Cc3ccccc3[C@H]2Oc2ccc3oc(=O)sc3c2)C1` (racemic) [Example 579, 5-[rac-trans-(1,2)-2-((R)-3-aminopiperidin-1-yl)indan-1-yloxy]benzo[1,3]oxathiol-2-one], the IC50 lay in the range of 1000 to 10000 nM.

With `Nc1ccc2c(O[C@H]3c4ccccc4CC[C@@H]3N3CCOCC3)cccc2c1` (racemic) [Example 569, 5-(rac-trans-(1,2)-2-morpholin-4-yl-1,2,3,4-tetrahydronaphthalen-1-yloxy)naphthalen-2-ylamine], the inhibition at 10 µM was 20 to 50%.

Regarding `c1cc(O[C@@H]2c3ccccc3C[C@H]2N2C[C@H]3CNC[C@H]3C2)cc(N2CCNCC2)c1` (racemic) [Example 13, 2-[rac-trans-(1,2)-1-(3-piperazin-1-ylphenoxy)indan-2-yl]octahydropyrrolo[3,4-c]pyrrole], the IC50 was 1000 to 10000 nM.

Regarding `Cc1nnc(C)n1-c1ccc(O[C@H]2c3cc(Cl)ccc3C[C@@H]2N2CC[C@@H](O)C2)c(F)c1` [Example 143, (R)-1-{trans-(1S,2S)-6-chloro-1-[4-(3,5-dimethyl-[1,2,4]triazol-4-yl)-2-fluorophenoxy]indan-2-yl}pyrrolidin-3-ol], the IC50 was less than 1000 nM.

Consider `CS(=O)(=O)c1ccc(O[C@H]2c3cc(Cl)cc(Cl)c3C[C@@H]2N2CCN3CCC[C@H]3C2)cc1` [Example 208, (S)-2-[(S)-4-(S)-chloro-6-chloro-1-(4-methanesulfonylphenoxy)indan-2-yl]octahydropyrrolo[1,2-a]pyrazine], for which the inhibition at 10 µM is 20 to 50%.

With `Cc1ccc(O[C@H]2c3ccccc3CC[C@@H]2N2CCC[C@@H](N)C2)cc1Cl` (racemic) [Example 53, (R)-1-[rac-trans-(1,2)-1-(3-chloro-4-methylphenoxy)-1,2,3,4-tetrahydronaphthalen-2-yl]piperidin-3-ylamine], the inhibition at 10 µM lay in the range of 20 to 50%.

With `COc1ccc(C)cc1O[C@H]1c2ccccc2CC[C@@H]1N1CCC[C@H](N)C1` (racemic) [Example 157, (S)-1-[rac-trans-(1,2)-1-(2-methoxy-5-methylphenoxy)-1,2,3,4-tetrahydronaphthalen-2-yl]piperidin-3-ylamine], the inhibition at 10 µM was in the range of 20 to 50%.

Consider `NC(=O)c1ccc(O[C@@H]2c3ccccc3C[C@H]2N2CCC[C@H](N)C2)cc1` (racemic) [Example 537, 4-[rac-trans-(1,2)-2-((S)-3-aminopiperidin-1-yl)indan-1-yloxy]benzamide], for which the IC50 lay within 1000 to 10000 nM.
